The source of these data is patent US20190328749A1, “FORMULATION OF LONG-ACTING LEVONORGESTREL BUTANOATE INJECTABLE DEPOT SUSPENSION” (Eastern Virginia Medical School, priority 2016, published 2019).

SMILES strings stand for the structures. Values joined by “and” are separate entries in the source; they are usually repeats but may differ in a detail not shown here. Identical values can stand only once.

Data set [1] in a line: uniformity of LB particle size distribution and concentration after dispersion/mixing and homogenization. The format is physicochemical. The note with it: post LB dispersion in Part II & mixing with Part I.
Data set [2] has as its system ovulation. As to conditions: women, single dose of 50 mg, micronized aqueous suspension, injected; cited from earlier work.
The nature of data set [3]: particle size distribution of micronized LB drug substance (dry milled, wet milled, spray dried). It counts as physicochemical. Here is the method: FIG. 3 and FIG. 4 show typical particle size distributions and photomicrographs of LB drug substance prepared by dry milling. The dry milled LB powder was dispersed in 1% polysorbate 20 and three replicate measurements of the particle size distribution were made.
FIG. 5 and FIG. 6 show typical particle size distributions and photomicrographs of LB drug substance prepared by wet milling. After wet milling for 15 minutes, the LB suspension was sampled and three replicate measurements of the particle size distribution were made.
FIG. 7 and FIG. 8 show typical particle size distributions and photomicrographs of LB drug substance prepared by spray drying processes. The spray dried LB powder was dispersed in 0.5% polysorbate 80 and three replicate measurements of the particle size distribution were made.

Data set [4] has as its system ovulation. The experiment in a line: monkey study, time to return to ovulation / duration of action. It counts as in vivo, non-human primates.
[5] abbreviates: dry milled LB powder dispersed in 1% polysorbate 20, replicate runs.
The mark [6] stands for this setting: spray dried LB powder dispersed in 0.5% polysorbate 80, replicate runs.
Setting [7] is: wet milled 15 minutes, LB suspension, replicate runs.

Take `C#C[C@]1(OC(=O)CCC)CC[C@H]2[C@@H]3CCC4=CC(=O)CC[C@@H]4[C@H]3CC[C@@]21CC` [LB, Levonorgestrel Butanoate]: in data set [1] (15 minutes), the “Assay Results - Concentration of LB, Average” value came to 20.03 mg/mL; the “Particle Size D50” value is recorded as 6.3 μm; the “Particle Size VMD” value worked out at 8.1 μm; the “particle size D10” value is 1.4 μm. Besides, the “particle size D90” value in data set [1] (15 minutes) amounted to 17.1 μm. Besides, in data set [1] (30 minutes), the “Assay Results - Concentration of LB, Average” value worked out at 20.00 mg/mL; the “Particle Size D50” value is 6.3 μm; the “Particle Size VMD” value worked out at 8.1 μm; the “particle size D10” value is given as 1.4 μm. Besides, the “particle size D90” value in data set [1] (30 minutes) was found to be 17.2 μm. For the same molecule, the “suppression of ovulation, duration” value in data set [2] is 5-6 months. For the same molecule, in data set [3] (setting [5]), the “particle size D10” value is 5.3 μm and 5.1 μm and 4.3 μm; the “particle size D90” value is 89.5 μm and 62.2 μm and 65.0 μm; the “particle size Mean” value is 38.6 μm and 30.7 μm and 29.9 μm; the “particle size Median” value was 23.1 μm and 22.7 μm and 18.6 μm. Also, in data set [3] (setting [6]), the “particle size D10” value was 8.3 μm and 8.2 μm (2×); the “particle size D90” value is 24.7 μm and 24.8 μm (2×); the “particle size Median” value worked out at 15.8 μm. In data set [3] (setting [7]), the “particle size D10” value is 5.4 μm (2×) and 4.3 μm; the “particle size D90” value is 47.3 μm and 50.9 μm and 54.9 μm; the “particle size Mean” value is 23.2 μm and 25.2 μm and 26.9 μm; the “particle size Median” value was 18.0 μm and 18.4 μm and 21.0 μm. Moreover, in data set [4], the “time to return to ovulation” value was “increases with increasing particle size of LB in the formulation and in many cases exceeding six months”.
